Experimental data as given in patent US10124033B2, “Peptides and methods of use” (BAXALTA INCORPORATED, priority 2014, dated 2018).
Residues, ends and D or L forms follow the SMILES beside them.

Each compound was assayed against T1, Protein S (Homo sapiens, UniProt P07225) (assay: competition (IC50) ELISA with biotinylated tracer peptide JBS0684). Conditions: competition ELISA, tracer JBS0684; re-synthesized peptides.
T1 sequence (P07225 41-676 limits assumed): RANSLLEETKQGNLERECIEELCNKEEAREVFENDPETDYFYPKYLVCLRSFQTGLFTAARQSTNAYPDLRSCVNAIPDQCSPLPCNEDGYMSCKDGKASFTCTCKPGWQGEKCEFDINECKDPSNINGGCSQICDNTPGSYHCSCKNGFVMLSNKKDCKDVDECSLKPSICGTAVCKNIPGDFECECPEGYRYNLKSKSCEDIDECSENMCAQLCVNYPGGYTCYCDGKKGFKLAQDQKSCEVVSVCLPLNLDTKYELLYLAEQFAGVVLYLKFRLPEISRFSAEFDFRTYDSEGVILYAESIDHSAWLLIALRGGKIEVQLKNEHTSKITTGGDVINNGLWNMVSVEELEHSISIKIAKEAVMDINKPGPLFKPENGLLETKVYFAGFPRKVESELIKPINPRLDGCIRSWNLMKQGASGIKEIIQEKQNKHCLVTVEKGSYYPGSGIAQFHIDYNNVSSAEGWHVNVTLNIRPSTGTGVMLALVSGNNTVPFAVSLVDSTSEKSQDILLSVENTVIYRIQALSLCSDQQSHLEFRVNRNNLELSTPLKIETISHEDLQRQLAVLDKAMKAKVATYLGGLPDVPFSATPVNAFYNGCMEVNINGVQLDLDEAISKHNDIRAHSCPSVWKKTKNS
Format: binding
Description: The new peptide candidates were synthesized (purity >60%) and screened for affinity in a competitive binding assay (ELISA IC50) and activity in a thrombin generation assay (CAT). The competition (IC50) ELISA was performed using biotinylated tracer peptide JBS0684 to compete for Protein S-binding with candidate peptides. Peptides that compete with the tracer bind the same region of Protein S as the tracer (and each other). Ninety-six well PolySorp plates (Nunc) were coated with 3 μg/mL Protein S in coating buffer (15 mM Na2CO3, 35 mM NaHCO3, pH 9.6) over night. Plates were washed three times with wash buffer (HNaT: 175 mM NaCl, 25 mM HEPES, 5 mM CaCl2, 0.1% Tween 80, pH 7.35), and blocked with 100 μl 2% yeast extract in HNaT for at least 1 hour. Plates were then washed three times with HNaT. JBS0684 was applied at a concentration corresponding to the EC90 value determined in the binding ELISA. A competitor stock solution of peptide (10 mM) was diluted 1/33.3 in HNaT without HSA, and a serial ⅓ dilution was prepared with HNaT with 3% DMSO. The dilution was further diluted with the biotinylated tracer peptide in a ratio of 1:6 (20 μl competitor dilution and 100 μl tracer peptide). The mixture of competitor and tracer peptide was applied to the Protein S-coated microtiter plate and incubated for 1.5 hours. The plates were washed three times with HNaT. Peptide-Protein S binding was detected by applying HRP-conjugated streptavidin to the microtiter plate, incubating the mixture for one hour, washing the plate three times with HNaT, applying TMB (3,3′5,5′-Tetramethylbenzidin), and detecting the subsequent chromogenic conversion of TMB by HRP. IC50 measurements of peptides are provided herein (see, e.g., Table 3).

IC50 [nM] | Compound
2.8 | CC(=O)N[C@H](C(=O)NCC(=O)N[C@@H](Cc1c[nH]cn1)C(=O)N[C@H](C(=O)N[C@@H](CO)C(=O)N[C@@H](C)C(=O)NCC(=O)N[C@@H](Cc1c[nH]c2ccccc12)C(=O)N[C@@H](Cc1ccc(O)cc1)C(=O)N[C@@H](CC(=O)O)C(=O)N[C@@H](Cc1ccc(O)cc1)C(=O)N[C@@H](CC(N)=O)C(=O)N[C@@H](Cc1ccccc1)C(=O)N[C@@H](CC(=O)O)C(=O)N[C@@H](CO)C(=O)N[C@@H](Cc1ccc(O)cc1)C(=O)N[C@@H](CCCNC(=N)N)C(=O)N[C@@H](CCC(=O)O)C(=O)N[C@@H](Cc1ccccc1)C(=O)N[C@H](C(N)=O)[C@@H](C)O)C(C)C)[C@@H](C)O [JBS2661] (Ac-TGHVSAGWYDYNFDSYREFT-NH2)
2.3 | CC(=O)N[C@H](C(=O)NCC(=O)N[C@@H](Cc1c[nH]cn1)C(=O)N[C@H](C(=O)N[C@@H](CO)C(=O)N[C@@H](C)C(=O)NCC(=O)N[C@@H](Cc1c[nH]c2ccccc12)C(=O)N[C@@H](Cc1ccc(O)cc1)C(=O)N[C@@H](CC(=O)O)C(=O)N[C@@H](Cc1ccc(O)cc1)C(=O)N[C@@H](CC(N)=O)C(=O)N[C@@H](CC(C)C)C(=O)N[C@@H](CC(=O)O)C(=O)N[C@@H](Cc1c[nH]cn1)C(=O)N[C@@H](Cc1ccc(O)cc1)C(=O)N[C@@H](CCCNC(=N)N)C(=O)N[C@@H](CCC(=O)O)C(=O)N[C@@H](Cc1ccccc1)C(=O)N[C@H](C(N)=O)[C@@H](C)O)C(C)C)[C@@H](C)O [JBS2582] (Ac-TGHVSAGWYDYNLDHYREFT-NH2)
5.2 | CC(=O)N[C@H](C(=O)NCC(=O)N[C@@H](Cc1c[nH]cn1)C(=O)N[C@H](C(=O)N[C@@H](CO)C(=O)N[C@@H](C)C(=O)NCC(=O)N[C@@H](Cc1c[nH]c2ccccc12)C(=O)N[C@@H](Cc1ccc(O)cc1)C(=O)N[C@@H](CC(=O)O)C(=O)N[C@@H](Cc1ccc(O)cc1)C(=O)N[C@@H](CC(N)=O)C(=O)N[C@@H](Cc1ccccc1)C(=O)N[C@@H](CC(=O)O)C(=O)N[C@@H](C)C(=O)N[C@@H](Cc1ccc(O)cc1)C(=O)N[C@@H](CCCNC(=N)N)C(=O)N[C@@H](CCC(=O)O)C(=O)N[C@@H](Cc1ccccc1)C(=O)N[C@H](C(N)=O)[C@@H](C)O)C(C)C)[C@@H](C)O [JBS2528] (Ac-TGHVSAGWYDYNFDAYREFT-NH2)
3.1 | CC(=O)N[C@H](C(=O)N1CCC[C@H]1C(=O)N[C@@H](Cc1c[nH]cn1)C(=O)N[C@H](C(=O)N[C@@H](CO)C(=O)N[C@@H](C)C(=O)NCC(=O)N[C@@H](Cc1c[nH]c2ccccc12)C(=O)N[C@@H](Cc1ccc(O)cc1)C(=O)N[C@@H](CC(=O)O)C(=O)N[C@@H](Cc1ccc(O)cc1)C(=O)N[C@@H](CC(N)=O)C(=O)N[C@@H](Cc1ccccc1)C(=O)N[C@@H](CC(=O)O)C(=O)N[C@@H](Cc1c[nH]cn1)C(=O)N[C@@H](Cc1ccc(O)cc1)C(=O)N[C@@H](CCCNC(=N)N)C(=O)N[C@@H](CCC(=O)O)C(=O)N[C@@H](Cc1ccccc1)C(=O)N[C@H](C(N)=O)[C@@H](C)O)C(C)C)[C@@H](C)O [JBS2629] (Ac-TPHVSAGWYDYNFDHYREFT-NH2)
5.6 | CC(=O)N[C@H](C(=O)NCC(=O)N[C@@H](CCCCN)C(=O)N[C@H](C(=O)N[C@@H](CO)C(=O)N[C@@H](C)C(=O)NCC(=O)N[C@@H](Cc1c[nH]c2ccccc12)C(=O)N[C@@H](Cc1ccc(O)cc1)C(=O)N[C@@H](CC(=O)O)C(=O)N[C@@H](Cc1ccc(O)cc1)C(=O)N[C@@H](CC(N)=O)C(=O)N[C@@H](Cc1ccccc1)C(=O)N[C@@H](CC(=O)O)C(=O)N[C@@H](Cc1c[nH]cn1)C(=O)N[C@@H](Cc1ccc(O)cc1)C(=O)N[C@@H](CCCNC(=N)N)C(=O)N[C@@H](CCC(=O)O)C(=O)N[C@@H](Cc1ccccc1)C(=O)N[C@H](C(N)=O)[C@@H](C)O)C(C)C)[C@@H](C)O [JBS2592] (Ac-TGKVSAGWYDYNFDHYREFT-NH2)
1.6 | CC(=O)N[C@H](C(=O)NCC(=O)N[C@@H](Cc1c[nH]cn1)C(=O)N[C@H](C(=O)N[C@@H](CO)C(=O)N[C@@H](C)C(=O)NCC(=O)N[C@@H](Cc1c[nH]c2ccccc12)C(=O)N[C@@H](Cc1ccc(O)cc1)C(=O)N[C@@H](CC(=O)O)C(=O)N[C@@H](Cc1ccc(O)cc1)C(=O)N[C@@H](CC(N)=O)C(=O)N[C@@H](Cc1ccccc1)C(=O)N[C@@H](CC(=O)O)C(=O)N[C@@H](Cc1c[nH]cn1)C(=O)N[C@@H](Cc1ccc(O)cc1)C(=O)N[C@@H](Cc1ccccc1)C(=O)N[C@@H](CCC(=O)O)C(=O)N[C@@H](Cc1ccccc1)C(=O)N[C@H](C(N)=O)[C@@H](C)O)C(C)C)[C@@H](C)O [JBS2625] (Ac-TGHVSAGWYDYNFDHYFEFT-NH2)

What follows are compounds tested against T1, Protein S (assay: LANCE IC50 assay (competition TR-FRET) with tracer JBS0684). Conditions: Table 4, multiple substitutions in JBS2572; read-out: LANCE IC50.
Format: binding
Description: Peptides also were characterized in a competition, homogenous europium-based TR-FRET assay (LANCE IC50 assay) using JBS0684 as a tracer (i.e., competitor for Protein S binding). The following reagents were mixed together in a Perkin-Elmer ProxiPlate MTP well (indicated concentration is the final concentration): Eu-labeled Protein S (10 nM), Ulight™-labeled Streptavidin (100 nM), tracer (JBS0684 (300 nM)), and peptide (titrated in three-fold dilution steps). The final volume was 50 μl/well. The reaction mix was incubated for 1 hour at room temperature, then the fluorescence emission at 665 nm was recorded on a multi-mode reader (SpectraMax® M5, Molecular Devices) using the following instrument settings: Ex 340 nm, Em 665 nm, delay 50 μsec, integration 100 μsec, reads 100. Binding of tracer peptides to soluble europium-labeled Protein S was detected by Streptavidin labeled with an acceptor fluorophor (ULight™). Inhibition of tracer-binding to Protein S by a non-biotinylated peptide results in a decrease of TR-FRET between the Eu-labeled Protein S and ULight™-labeled Streptavidin. IC50 values were obtained from peptide titration curves at constant tracer concentration using non-linear regression of the fluorescence emission signals at 665 nm.

IC50 [nM] | Compound
2 | CC(=O)N[C@H](C(=O)NCC(=O)N[C@@H](CC(C)C)C(=O)N[C@H](C(=O)N[C@@H](CO)C(=O)N[C@@H](C)C(=O)NCC(=O)N[C@@H](Cc1c[nH]c2ccccc12)C(=O)N[C@@H](Cc1ccc(O)cc1)C(=O)N[C@@H](CC(=O)O)C(=O)N[C@@H](Cc1ccc(O)cc1)C(=O)N[C@@H](CC(N)=O)C(=O)N[C@@H](CC(N)=O)C(=O)N[C@@H](CC(=O)O)C(=O)N[C@H](C(=O)N[C@@H](Cc1ccc(O)cc1)C(=O)N[C@@H](CCCNC(=N)N)C(=O)N[C@@H](CCC(=O)O)C(=O)N[C@@H](Cc1ccccc1)C(=O)N[C@H](C(N)=O)[C@@H](C)O)C(C)C)C(C)C)[C@@H](C)O [JBS3195] (Ac-TGLVSAGWYDYNNDVYREFT-NH2)
2.8 | CC(=O)N[C@H](C(=O)NCC(=O)N[C@@H](CC(C)C)C(=O)N[C@H](C(=O)N[C@@H](CCC(=O)O)C(=O)N[C@@H](C)C(=O)NCC(=O)N[C@@H](Cc1c[nH]c2ccccc12)C(=O)N[C@@H](Cc1ccc(O)cc1)C(=O)N[C@@H](CC(=O)O)C(=O)N[C@@H](Cc1ccc(O)cc1)C(=O)N[C@@H](CC(N)=O)C(=O)N[C@@H](Cc1ccccc1)C(=O)N[C@@H](CC(=O)O)C(=O)N[C@H](C(=O)N[C@@H](Cc1ccc(O)cc1)C(=O)N[C@@H](CCCNC(=N)N)C(=O)N[C@@H](CCC(=O)O)C(=O)N[C@@H](Cc1ccccc1)C(=O)N[C@H](C(N)=O)[C@@H](C)O)[C@@H](C)O)C(C)C)[C@@H](C)O [JBS3192] (Ac-TGLVEAGWYDYNFDTYREFT-NH2)
1.6 | CC(=O)N[C@@H](Cc1ccc(O)cc1)C(=O)NCC(=O)N[C@@H](CC(C)C)C(=O)N[C@H](C(=O)N[C@@H](CO)C(=O)N[C@@H](C)C(=O)NCC(=O)N[C@@H](Cc1c[nH]c2ccccc12)C(=O)N[C@@H](Cc1ccc(O)cc1)C(=O)N[C@@H](CC(=O)O)C(=O)N[C@@H](Cc1ccc(O)cc1)C(=O)N[C@@H](CC(N)=O)C(=O)N[C@@H](Cc1ccccc1)C(=O)N[C@@H](CC(=O)O)C(=O)N[C@H](C(=O)N[C@@H](Cc1ccc(O)cc1)C(=O)N[C@@H](CCCNC(=N)N)C(=O)N[C@@H](CCC(=O)O)C(=O)N[C@@H](Cc1ccccc1)C(=O)N[C@H](C(N)=O)[C@@H](C)O)C(C)C)C(C)C [JBS3191] (Ac-YGLVSAGWYDYNFDVYREFT-NH2)
